This experiment deals with T1, Tyrosinase (Homo sapiens, UniProt P14679).
T1 sequence (P14679 whole entry): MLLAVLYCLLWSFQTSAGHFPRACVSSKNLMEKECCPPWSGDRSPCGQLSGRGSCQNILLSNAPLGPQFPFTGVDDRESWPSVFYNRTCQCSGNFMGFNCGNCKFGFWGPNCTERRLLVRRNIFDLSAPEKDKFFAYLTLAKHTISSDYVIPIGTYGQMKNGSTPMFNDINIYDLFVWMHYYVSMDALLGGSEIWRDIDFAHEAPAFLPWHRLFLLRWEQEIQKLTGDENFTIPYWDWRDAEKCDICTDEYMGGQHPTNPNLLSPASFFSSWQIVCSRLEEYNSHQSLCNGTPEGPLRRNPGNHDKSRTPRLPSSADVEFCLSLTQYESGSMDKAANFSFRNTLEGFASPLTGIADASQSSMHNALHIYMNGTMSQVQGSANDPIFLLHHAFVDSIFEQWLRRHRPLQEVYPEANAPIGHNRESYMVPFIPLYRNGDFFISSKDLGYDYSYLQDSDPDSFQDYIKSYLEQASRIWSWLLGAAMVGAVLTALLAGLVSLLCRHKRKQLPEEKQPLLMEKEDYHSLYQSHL
The experiment can be described thus: Compound was evaluated for inhibition of tyrosinase enzyme; Not active. More on the design: species or system mushroom.

Take `N[C@@H](Cc1ccccc1)C(=O)O` [PHENYLALANINE]: the IC50 result was “Not Active”.

The record behind these values is ChEMBL document CHEMBL1129764, “Synthesis of N-kojic-amino acid and N-kojic-amino acid-kojiate and their tyrosinase inhibitory activity” (Bioorg Med Chem Lett, 1996).
